# Measured values as given in patent US20220380432A1, “Acylated Calcitonin Mimetics” (KeyBioscience AG, priority 2018, published 2022).
# Numbered stars: 1 amine (or outer) side, 2 acyl side, 3 side chain; on linkers, the order of the positions; unused ones are H or OH. Bridge positions count the residues as written; N and C are the ends. Square brackets hold non-standard residues; d marks the D form. Side chains are listed from the residue outwards. Ends that are not written are not given here. Peptide text beside a SMILES is read from it. * marks the point of attachment. C18 diacid = O=C(O)CCCCCCCCCCCCCCCCC(=O)*; γGlu = O=C(O)[C@H](CCC(=O)[*:2])N[*:1]; AEEA = NCCOCCOCC(=O)O; Aib = CC(C)(N)C(=O)O
# T1: Calcitonin Receptor (CTR) (Homo sapiens (Human), UniProt P30988)
# T1 sequence: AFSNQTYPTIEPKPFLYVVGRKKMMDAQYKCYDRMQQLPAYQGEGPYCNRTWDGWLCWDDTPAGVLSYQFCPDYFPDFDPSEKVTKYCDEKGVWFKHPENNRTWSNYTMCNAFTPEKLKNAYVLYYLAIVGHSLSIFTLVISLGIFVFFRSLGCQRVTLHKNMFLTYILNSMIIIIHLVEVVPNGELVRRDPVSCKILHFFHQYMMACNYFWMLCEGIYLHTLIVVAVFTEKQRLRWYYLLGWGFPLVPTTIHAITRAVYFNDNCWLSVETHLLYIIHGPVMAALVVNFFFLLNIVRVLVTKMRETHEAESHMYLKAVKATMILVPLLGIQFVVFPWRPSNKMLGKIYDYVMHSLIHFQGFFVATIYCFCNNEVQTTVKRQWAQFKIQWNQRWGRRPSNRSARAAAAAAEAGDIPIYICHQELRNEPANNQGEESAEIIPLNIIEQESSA
# T2: Amylin Receptor (AMY-R) (Homo sapiens (Human), UniProt P30988)
# T2 sequence 1: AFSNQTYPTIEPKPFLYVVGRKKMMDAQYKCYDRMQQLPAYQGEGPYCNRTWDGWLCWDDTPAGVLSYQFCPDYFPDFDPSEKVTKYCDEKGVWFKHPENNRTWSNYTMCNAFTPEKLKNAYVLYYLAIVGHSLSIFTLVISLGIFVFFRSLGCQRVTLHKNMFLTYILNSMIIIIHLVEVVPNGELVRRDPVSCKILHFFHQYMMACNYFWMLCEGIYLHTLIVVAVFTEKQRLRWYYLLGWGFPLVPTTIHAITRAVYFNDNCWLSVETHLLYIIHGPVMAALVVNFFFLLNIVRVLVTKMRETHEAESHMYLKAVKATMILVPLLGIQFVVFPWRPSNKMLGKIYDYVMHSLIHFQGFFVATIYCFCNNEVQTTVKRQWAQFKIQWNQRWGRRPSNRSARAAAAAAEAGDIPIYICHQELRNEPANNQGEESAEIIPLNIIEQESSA
# T2 sequence 2: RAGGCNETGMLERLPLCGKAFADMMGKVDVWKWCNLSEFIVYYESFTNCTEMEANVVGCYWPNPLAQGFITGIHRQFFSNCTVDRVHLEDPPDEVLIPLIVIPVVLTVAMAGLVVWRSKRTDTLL
# Legend:
# [1] = Thioflavin T (ThT) fibrillation screening assay; format: physicochemical; conditions: for Peptide Fibrillation Thioflavin T ΔFluorescence 18 h Assay Score: Table 4.4: acylation linkers, backbone KBP-066, tier from 18 h fluorescence signal, 37° C.
# Description: Thioflavin T (T3516, Sigma). Assay stock ThT is prepared as a 10 mM solution in 5 mM sodium phosphate pH 7.2. Aliquots are stored, protected from light, at −20° C. Stock ThT is thawed and diluted just prior to use.
# For the tested calcitonin mimetics (hereinafter referred to as “acylated KBPs” or simply “KBPs”), final buffer conditions are 10 mM Tris-HCl pH 7.5.
# The final peptide concentration in the wells should be 100-200 μM, and the final ThT concentration should be 4 μM. ThT is added last (10 μL).
# Thioflavin T assays were also conducted. Thioflavin T (ThT) is a dye widely used for the detection of amyloid fibrils. In the presence of fibrils, ThT has an excitation maximum at 450 nm and enhanced emission at 480 nm, whereas ThT is essentially non-fluorescent at these wavelengths when not bound to amyloid fibrils.
# Thus, ThT in combination with a fluorescent plate reader is an ideal tool for screening large numbers of in vitro samples for the presence of amyloid fibrils. […]
# The plate is loaded into a fluorescent plate reader, such as a SpectraMax with SoftMax Pro 7.0.2 software, and the template set to 37° C. with excitation wavelength at 450 nm and emission wavelength at 480 nm.
# Plate reader should measure fluorescence every 10 minutes for 24 hours with a five-second plate shake before the first read and a three-second plate shake before all other reads. Alternatively, the plate is read after the following incubation times; 0, 1, 2, 4 and 24 hours.
# Plot relative fluorescence units (RFU) as a function of time. Fibrillation is determined as an increase in RFU over baseline as described by Nielsen et. al.
# In this filing four fibrillations tiers have been defined based on the 18 h fluorescence signal to get a single output that reflects the peptides fibrillation potential: None=<1000 RFU, Low=1000-3000 RFU, Medium=3000-10000, High=>10000
# 20 week HFD SD rats = assay: Single dose food intake and body weight test in HFD SD rats (Examples 3, 4, 5, 8, 10, 12); format: in vivo, rat; conditions: for Food Intake ΔFOOD Sustained Attenuation (4 nmol/kg) Hours: Table 4.4: acylation linkers, backbone KBP-066, single s.c. dose 4 nmol/kg, HFD SD rats; for Food Intake ΔFOOD Sustained Attenuation (36 nmol/kg) Hours: 36 nmol/kg single dose
# From the text: In the animal model studies, 12 week healthy Sprague Dawley (SD) rats were used to assess the potency of the acylated KBPs. In some examples they were fed normal chow during prior and during the tests, whereas in other examples, the 12 week healthy SD rats were fed high fat diet (HFD) for eight weeks prior to the test and for the duration of the test.
# (§1) Rats were single caged four days prior to the test. Rats were randomized by weight into eleven groups (Vehicle (0.9% NaCl), KBPs (doses: 36 nmol/kg (150-157 μg/kg)). They were fasted overnight and then treated with a single dose of peptide or vehicle in the morning using subcutaneous administration. Food intake was monitored in the following intervals (0-4 hours, 4-24 hours, 24-48 hours . . . 144-168 hours). Body weight was measured at baseline and every 24 hours post s.c injection.
# as §1, with “(doses: 4 nmol/kg (^17 μg/kg), 12 nmol/kg (^50 μg/kg) or” for “(doses:”, “([…]” for “(150-157”
# Single high dose effect of A11/3 acylated variants of KBP-042 and KBP-066 on food intake and body weight in 20 week HFD SD rats. Rats were single caged four days prior to the test. Rats were randomized by weight into eleven groups (Vehicle (0.9% NaCl), KBPs (doses: 300 nmol/kg (^1000 μg/kg)).
# The rats were fasted overnight and then treated with a single dose of peptide or vehicle in the morning using subcutaneous administration. Food intake was monitored in the following intervals (0-4 hours, 4-24 hours, 24-48 hours . . . […]). Body weight was measured at baseline and every 24 hours post s.c injection.
# (§2) Rats were single caged four days prior to the test. Rats were randomized by weight into eight groups (Vehicle (0.9% NaCl), KBPs (doses: 3 nmol/kg (^10-11 μg/kg)). They were fasted overnight and then treated with a single dose of peptide or vehicle in the morning using subcutaneous administration. Food intake was monitored in the following intervals (0-4 hours, 4-24 hours, 24-48 hours, 48-72 hours, and 72-96 hours). Body weight was measured at baseline and at 4 hour, 24 hours, 48 hours, 72 hours and 96 hours post s.c injection.
# as §2, with “4” for “3”, “s.c.” for “s.c”, “injection. Two backbones were tested, KBP-066 and KBP-021.” for “injection.”
# as §2, with “4” for “3”, “(^13-14” for “(^10-11”
# [2] = molecular target: T1, Calcitonin Receptor (CTR); assay: cell-based or functional assay
# Amylin Receptor (AMY-R) = molecular target: T2, Amylin Receptor (AMY-R); assay: cell-based or functional assay
β-arrestin Fold Recruitment EC50 values (10^-9 M) [2],β-arrestin Prolonged CTR response (10 nM) tAUC value 0-72 h [2],β-arrestin Fold Recruitment EC50 values (10^-09 M) (Amylin Receptor (AMY-R)),Molecule,Food Intake ΔFOOD Sustained Attenuation (36 nmol/kg) Hours (20 week HFD SD rats),also measured
–,–,–,CC(=O)N[C@H]1CSSC[C@@H](C(=O)NC(C)(C)C(=O)N[C@@H](CC(C)C)C(=O)NCC(=O)N[C@@H](CCCCNC(=O)COCCOCCNC(=O)CC[C@H](NC(=O)CCCCCCCCCCCCCCCCC(=O)O)C(=O)O)C(=O)N[C@@H](CC(C)C)C(=O)N[C@@H](CO)C(=O)N[C@@H](CCC(N)=O)C(=O)N[C@@H](CC(=O)O)C(=O)N[C@@H](CC(C)C)C(=O)N[C@@H](Cc2c[nH]cn2)C(=O)N[C@@H](CCCNC(=N)N)C(=O)N[C@@H](CC(C)C)C(=O)N[C@@H](CCC(N)=O)C(=O)N[C@H](C(=O)N[C@@H](Cc2ccc(O)cc2)C(=O)N2CCC[C@H]2C(=O)N[C@@H](CCCCN)C(=O)N[C@H](C(=O)N[C@@H](CC(=O)O)C(=O)N[C@H](C(=O)NCC(=O)N[C@@H](C)C(=O)N[C@@H](CC(N)=O)C(=O)N[C@@H](C)C(=O)N2CCC[C@H]2C(N)=O)C(C)C)[C@@H](C)O)[C@@H](C)O)NC(=O)[C@H]([C@@H](C)O)NC(=O)[C@H](CO)NC(=O)[C@H](CC(C)C)NC(=O)[C@H](CC(N)=O)NC(=O)[C@H](CO)NC1=O [KBP-384] (Ac-CSNLSTC[Aib]LGK([AEEA-γGlu-C18 diacid])LSQDLHRLQTYPKTDVGANAP-NH2; disulfide 1-7 (inferred)),–,fibrillation tier (score in the ThT assay) ([1]; 18 h fluorescence signal): low; Peptide Fibrillation Thioflavin T ΔFluorescence 18 h Assay Score [1]: Low (Low=1000-3000 RFU); Food Intake ΔFOOD Sustained Attenuation (4 nmol/kg) Hours (20 week HFD SD rats): 72 h
–,–,–,CC(=O)N[C@H]1CSSC[C@@H](C(=O)NC(C)(C)C(=O)N[C@@H](CC(C)C)C(=O)NCC(=O)N[C@@H](CCCCNC(=O)COCCOCCNC(=O)COCCOCCNC(=O)COCCOCCNC(=O)CC[C@H](NC(=O)CCCCCCCCCCCCCCCCC(=O)O)C(=O)O)C(=O)N[C@@H](CC(C)C)C(=O)N[C@@H](CO)C(=O)N[C@@H](CCC(N)=O)C(=O)N[C@@H](CC(=O)O)C(=O)N[C@@H](CC(C)C)C(=O)N[C@@H](Cc2c[nH]cn2)C(=O)N[C@@H](CCCNC(=N)N)C(=O)N[C@@H](CC(C)C)C(=O)N[C@@H](CCC(N)=O)C(=O)N[C@H](C(=O)N[C@@H](Cc2ccc(O)cc2)C(=O)N2CCC[C@H]2C(=O)N[C@@H](CCCCN)C(=O)N[C@H](C(=O)N[C@@H](CC(=O)O)C(=O)N[C@H](C(=O)NCC(=O)N[C@@H](C)C(=O)N[C@@H](CC(N)=O)C(=O)N[C@@H](C)C(=O)N2CCC[C@H]2C(N)=O)C(C)C)[C@@H](C)O)[C@@H](C)O)NC(=O)[C@H]([C@@H](C)O)NC(=O)[C@H](CO)NC(=O)[C@H](CC(C)C)NC(=O)[C@H](CC(N)=O)NC(=O)[C@H](CO)NC1=O [KBP-385] (Ac-CSNLSTC[Aib]LGK([AEEA-AEEA-AEEA-γGlu-C18 diacid])LSQDLHRLQTYPKTDVGANAP-NH2; disulfide 1-7 (inferred)),–,Peptide Fibrillation Thioflavin T ΔFluorescence 18 h Assay Score [1]: None (None=<1000 RFU); Food Intake ΔFOOD Sustained Attenuation (4 nmol/kg) Hours (20 week HFD SD rats): 72 h
–,–,–,"KBP-372: KBP-042 core, A11/3 acylation (Ac-CSNLSTCVLGKLSQELHKLQTYPRTDVGANAP-NH2; not fully specified (residue 11); ends and bridges not checked)",96 h,"protracted in vivo efficacy, high dose test (in words) (20 week HFD SD rats; single s.c. dose 300 nmol/kg): superior protracted in vivo efficacy that lasted for days"
–,–,–,"KBP-374: KBP-042 core with added C-terminal acylated lysine (A32 type, Table 1) (Ac-CSNLSTCVLGKLSQELHKLQTYPRTDVGANAPK; not fully specified (residue 33); ends and bridges not checked)",72 h,–
–,–,–,"KBP-377: KBP-089 core, A32/3 acylation (Ac-CSNLSTCMLGRLSQDLHRLQTYPKTDVGANAPK; not fully specified (residue 33); ends and bridges not checked)",72 h,–
49.2 nM,1070,151 nM,Ac-CSNLSTCVLGKLSQELHKLQTYPRTDVGANAPK (not fully specified (residue 33); ends and bridges not checked) [KBP-374],–,–
66 nM,1400,73.1 nM,Ac-CSNLSTCMLGRLSQDLHRLQTYPKTDVGANAPK (not fully specified (residue 33); ends and bridges not checked) [KBP-377],–,–
7.8 nM,1300,45.6 nM,Ac-CSNLSTCVLGKLSQELHKLQTYPRTDVGANAP-NH2 (not fully specified (residue 11); ends and bridges not checked) [KBP-372],–,–
